This note sets out measurements from US10226062B2, “Organic compounds” (priority 2013, dated 2019).

What all share (type): in vivo
Assay [1] has as its system umami and salt taste of 0.5% NaCl solution. Kind of assay: Tasting of NaCl solutions by flavourists (Example 2). As to conditions: 0.5% NaCl + 5 ppm compound compared with 0.5% NaCl reference; scale -3 (much lower) to 3 (much higher), 0 = same as reference; average of flavourists' ratings. On the procedure: An aqueous NaCl solution (0.5% by weight) was prepared (reference) to which 5 ppm of a compound of formula (I) was added.
The samples were tasted by a group of flavourists. The intensity of the umami and salt taste of the NaCl solutions comprising a compound of formula (I) (0.5% NaCl; 5 ppm of a compound of formula (I)) was compared with that of the reference (0.5% NaCl) and rated according to the following intensity scale:
Taste effect much lower than reference: −3
Taste effect lower than reference: −2
Taste effect slightly lower than reference: −1
Taste effect same as reference: 0
Taste effect slightly higher than reference: 1
Taste effect higher than reference: 2
Taste effect much higher than reference: 3

Assay [2] relates to taste of NaCl, MSG and Ribo solutions. Kind of assay: Taste enhancement of NaCl, MSG and Ribo solutions, tasted by flavourists (Example 3). As to conditions: linear scale 0 to 10; for Taste intensity NaCl: solution D (0.5% NaCl + 5 ppm compound) compared with A (0.5% NaCl, = 0.0), 5-10 flavourists; for Taste intensity MSG: solution E (0.5% NaCl + 0.03% MSG + 5 ppm compound) compared with B (0.5% NaCl + 0.03% MSG, = 5.0); for Taste intensity Ribo: solution F (0.5% NaCl + 0.015% Ribo + 5 ppm compound) compared with C (0.5% NaCl + 0.015% Ribo, = 5.0). Here is the method: Six solutions were prepared: • A a solution of 0.5% NaCl • B a solution of 0.5% NaCl and 0.03% MSG (monosodium glutamate) • C a solution of 0.5% NaCl and 0.015% Ribo (disodium 5-ribonucleotides=E635) • D a solution of 0.5% NaCl and 5 ppm of a compound of formula (I) • E a solution of 0.5% NaCl and 0.03% MSG and 5 ppm a compound of formula (I) • F a solution of 0.5% NaCl and 0.015% Ribo and 5 ppm of a compound of formula (I)
The samples were tasted by a group of 5-10 flavourists aged between 30 and 60. The taste of solution D was compared with that of A to determine the enhancement effect of a compound of formula (I) on NaCl. Similarly, solution E was compared with solution B and solution F with solution C to determine the enhancement effect of a compound of formula (I) on MSG and Ribo respectively. The effect was marked on a linear scale between 0 and 10, the greater the value the greater the effect. For a reference, the taste solutions of B and C were compared with A as well.

In assay [3] the test system is taste of vegetarian bouillon. Kind of assay: Vegetarian bouillon tasting by flavourists (Example 4). As to conditions: 10 ppm compound in vegetarian bouillon (32 g mix in 1 L boiling water); 4 flavourists. Here is the method:
A vegetarian bouillon mix was prepared from 204.71 g of sodium chloride, 147.76 g of dextrose monohydrate (ex Tapioca), 0.19 g of celery oleoresin, 0.19 g of oleoresin coriander seed, 418.64 g maltodextrin 5-8 DE, 37.65 g vegetable oil soya bean refined, 28.24 g yeast standard light, 3.76 g of onion powder, 3.76 g of garlic powder, 0.47 g of white pepper and 154.35 g of potato starch.
32 g of the well-mixed ingredients was added to 1 L of boiling water and stirred until completely dissolved.

Assay [4] deals with umami- and salt-taste in comestible products. Kind of assay: Taste imparted in comestible products (general statement).

Regarding `CCC(CC)NCc1ccc2c(c1)OCO2` [N-piperonyl 3-pentylamine], in assay [1], the “Taste intensity Salt (NaCl)” value is on record as 0.50 and the “Taste intensity Umami” value was 0.00. Also, in assay [2], the “Taste intensity NaCl” value amounted to 1.0, the “Taste intensity MSG” value worked out at 6.3 and the “Taste intensity Ribo” value is reported as 5.3. Moreover, the “Taste of test bouillon compared with reference bouillon” value in assay [3] was “more umami, sweeter and more lingering”.
In the case of `CCNCc1ccc2c(c1)OCO2` [N-piperonyl ethylamine], in assay [1], the “Taste intensity Salt (NaCl)” value is 0.75 and the “Taste intensity Umami” value is reported as 0.25. In addition, in assay [2], the “Taste intensity NaCl” value is reported as 1.3, the “Taste intensity MSG” value is recorded as 6.6 and the “Taste intensity Ribo” value is on record as 5.6. The “Taste of test bouillon compared with reference bouillon” value in assay [3] is “more umami, more salty, slightly sweeter and had a slightly more powdery volatile effect”. Also, the “Taste imparted in comestible products” value in assay [4] is “imparted an umami- and salt-taste”.
With `OCCNCc1ccc2c(c1)OCO2` [N-piperonyl 2-hydroxyethylamine], in assay [1], the “Taste intensity Salt (NaCl)” value is given as 0.75 and the “Taste intensity Umami” value came to 0.00.
For `CNCc1ccc2c(c1)OCO2` [N-piperonyl methylamine], in assay [1], the “Taste intensity Salt (NaCl)” value came to 0.25 and the “Taste intensity Umami” value is reported as 0.00.
The matching figures for `C[C@H](NCc1ccc2c(c1)OCO2)C(=O)O` [N-piperonyl alanine]: 0.50 and 0.00.
The matching figures for `COc1cc(CNCCO)ccc1O.Cl` [N-(2-hydroxyethyl) vanillylamine hydrochloride]: 0.33 and 0.67.
For `CCC(CO)NCc1ccc2c(c1)OCO2` (stereo not shown) [N-piperonyl 1-hydroxy-2-butylamine], in assay [1], the “Taste intensity Salt (NaCl)” value was found to be 0.67 and the “Taste intensity Umami” value worked out at 0.33. Besides, in assay [2], the “Taste intensity NaCl” value is given as 1.0, the “Taste intensity MSG” value is 5.3 and the “Taste intensity Ribo” value is given as 5.0.
Take `CC(C)NCc1ccc2c(c1)OCO2` [N-piperonyl isopropylamine]: in assay [1], the “Taste intensity Salt (NaCl)” value turned out to be 0.50 and the “Taste intensity Umami” value stood at 0.00.
Take `CCNCc1ccc(O)c(OC)c1.Cl` [N-vanillyl ethylamine hydrochloride]: in assay [1], the “Taste intensity Salt (NaCl)” value is recorded as 0.67 and the “Taste intensity Umami” value was 0.67.
Take `OCC(CO)NCc1ccc2c(c1)OCO2` [N-piperonyl 1,3-dihydroxy-2-propylamine]: in assay [1], the “Taste intensity Salt (NaCl)” value is on record as 1.00 and the “Taste intensity Umami” value was determined as 0.50. In assay [2], the “Taste intensity NaCl” value is reported as 2.3, the “Taste intensity MSG” value was found to be 5.0 and the “Taste intensity Ribo” value was 5.0.
Regarding `CCCNCc1ccc2c(c1)OCO2` [N-piperonyl n-propylamine], in assay [1], the “Taste intensity Salt (NaCl)” value turned out to be 1.00 and the “Taste intensity Umami” value is listed as 0.00.
